The assay concerns subgenomic HCV replicon in Huh-7 cells. Description: Cell-Based HCV Replication Assay (replicon, NS3 Cell-ELISA). Details: species or system hepatitis C virus (HCV). The settings on record: Hepatitis C virus. An excerpt:
Another suitable assay is the cellular Replicon or rheplisa assay described as follows:
Cell-Based HCV Replication Assay
Cell clones that stably maintain subgenomic HCV replicon were obtained by transfecting Huh-7 cells with an RNA replicon identical to I377neo/NS3-3′/wt described by V. Lohmann et al., 285 SCIENCE 110 (Jul. 2, 1999) (EMBL-GENBANK No. AJ242652), followed by selection with neomycin sulfate (G418). Viral replication was monitored by measuring the expression of the NS3 protein by an ELISA assay performed directly on cells grown in 96-well microtiter plates (Cell-ELISA) using the anti-NS3 monoclonal antibody 10E5/24 (as described in International Patent Application Publication WO 02/59321). Cells were seeded into 96 well plates at a density of 10^4 cells per well in a final volume of 0.1 ml of DMEM/10% FCS. Two hours after plating, 50 μl of DMEM/10% FCS containing a 3× concentration of inhibitor were added, cells were incubated for 96 hours and then fixed for 10 minutes with ice-cold isopropanol. Each condition was tested in duplicate and average absorbance values were used for calculations. The cells were washed twice with PBS, blocked with 5% non-fat dry milk in PBS+0.1% TRITON X-100+0.02% SDS (PBSTS) and then incubated o/n at 4° C. with the 10E5/24 mab diluted in Milk/PBSTS. After washing 5 times with PBSTS, the cells were incubated for 3 hours at room temperature with Fe-specific anti-mouse IgG conjugated to alkaline phosphatase (Sigma), diluted in Milk/PBSTS. After washing again as above, the reaction was developed with p-nitrophenyl phosphate disodium substrate (Sigma) and the absorbance at 405/620 nm read at intervals. For calculations, we used data sets where samples incubated without inhibitors had absorbance values comprised between 1 and 1.5. The inhibitor concentration that reduced by 50% the expression of NS3 (IC50) was calculated by fitting the data to the Hill equation, Fraction inhibition=1−(Ai−b)/(A0−b)=[I]^n/([I]+IC50) where: • Ai=absorbance value of HBI10 cells supplemented with the indicated inhibitor concentration. • A0=absorbance value of HBI10 cells incubated without inhibitor. • b=absorbance value of Huh-7 cells plated at the same density in the same microtiter plates and incubated without inhibitor. • n=Hill coefficient.
(In general: Replicon systems follow genome replication, usually without infectious particles.)

Where [1] appears, read: Huh-7 cells with subgenomic HCV replicon, NS3 expression by Cell-ELISA, 96 hours incubation, read-out: Cell based HCV Replication Assay-IC50.
Where [2] appears, read: Huh-7, 96 h, read-out: Cell based HCV Replication Assay-IC50.

Where two headings read alike, the source gives them in different places.

For the molecule `C=C[C@@H]1C[C@]1(NC(=O)[C@@H]1CC2CN1C(=O)[C@H](C1CCCC1)NC(=O)N1CCCC(C1)OC/C=C/Cn1cc(C)c3c4ccccc4nc(c31)O2)C(=O)NS(=O)(=O)C1CC1` (stereo in doubt) [Example 15, (3S,5S,8S,18E)-8-cyclopentyl-N-((1R,2S)-1-{[(cyclopropylsulfonyl)amino]carbonyl}-2-vinylcyclopropyl)-23-methyl-7,10-dioxo-2,16-dioxa-6,9,11,21,31-pentaazahexacyclo [19.10.1.1^3,6.1^11,15.0^24,32.0^25,30] tetratriaconta-1(31),18,22,24(32),25,27,29-heptaene-5-carboxamide], under setting [1], the IC50 (commonly the concentration that gives 50% inhibition) stood at 5 nM. In the case of `C=CC1C[C@]1(NC(=O)[C@@H]1C[C@@H]2CN1C(=O)[C@H](C1CCCCC1)NC(=O)N1CCC(CC1)OCCC/C=C/c1cc3c(cc(OCC)nc3cc1OC)O2)C(=O)NS(=O)(=O)C1CC1` (stereo in doubt) [Example 32, (3R,5S,8S,19E)-8-cyclohexyl-N-((1R,2R)-1-{[(cyclopropylsulfonyl)amino]carbonyl}-2-vinylcyclopropyl)-26-ethoxy-22-methoxy-7,10-dioxo-2,15-dioxa-6,9,11,25-tetraazapentacyclo [19.6.2.2^11,14.1^3,6.0^24,28] dotriaconta-1(27),19,21,23,25,28-hexaene-5-carboxamide], under setting [1], the IC50 was found to be 10 nM.

Consider `C=CC1C[C@]1(NC(=O)[C@@H]1C[C@@H]2CN1C(=O)[C@H](C1CCCCC1)NC(=O)N1CCC(CC1)OCCCCCc1cc3c(cc(OCC)nc3cc1OC)O2)C(=O)NS(=O)(=O)C1CC1` (stereo in doubt) [Example 34, (3R,5S,8S)-8-cyclohexyl-N-((1R,2R)-1-{[(cyclopropylsulfonyl)amino]carbonyl}-2-vinylcyclopropyl)-26-ethoxy-22-methoxy-7,10-dioxo-2,15-dioxa-6,9,11,25-tetraazapentacyclo [19.6.2.2^11,14.1^3,6.0^24,28] dotriaconta-1(27),21,23,25,28-pentaene-5-carboxamide], for which the IC50 under setting [1] turned out to be 7 nM.

Consider `C=C[C@@H]1C[C@]1(NC(=O)[C@@H]1C[C@@H]2CN1C(=O)[C@H](C1CCCCC1)NC(=O)N1CCC[C@@H](C1)OCCCc1cc3c(cc(OCC)nc3cc1OC)O2)C(=O)NS(=O)(=O)C1CC1` [Example 1, (3R,5S,8S,15S)-8-Cyclohexyl-N-((1R,2S)-1-{[(cyclopropylsulfonyl)amino]carbonyl}-2-vinylcyclopropyl)-25-ethoxy-21-methoxy-7,10-dioxo-2,16-dioxa-6,9,11,24-tetraazapentacyclo[18.6.2.1^3,6.1^11,15.0^23,27]triaconta-1(27),20,22,23,25,27-hexaene-5-carboxamide], for which, for the setting “Huh-7 replicon cells, NS3 expression by Cell-ELISA, 96 hours, read-out: Cell-based HCV Replication Assay: IC50”, the IC50 was 4 nM. As to `C=C[C@@H]1C[C@]1(NC(=O)[C@@H]1C[C@@H]2CN1C(=O)[C@H](C(C)(C)C)NC(=O)N1CCC[C@@H]1CC/C=C/c1cccc3c1CN(C3)C(=O)O2)C(=O)NS(=O)(=O)C1CC1` [Example 3, (1R,12E,16S,23S,26S)-23-tert-butyl-N-((1R,2S)-1-{[(cyclopropylsulfonyl)amino]carbonyl}-2-vinylcyclopropyl)-3,21,24-trioxo-2-oxa-4,20,22,25-tetraazapentacyclo [23.2.1.1^4,7.0^6,11.0^16,20] nonacosa-6,8,10,12-tetraene-26-carboxamide], the IC50 under setting [1] stood at 16 nM. `C=C[C@@H]1C[C@]1(NC(=O)[C@@H]1C[C@@H]2CN1C(=O)[C@H](C(C)(C)C)NC(=O)N1CCC[C@H]1CC/C=C/c1cccc3c1CN(C3)C(=O)O2)C(=O)NS(=O)(=O)C1CC1` [Example 4, (1R,12E,16R,23S,26S)-23-tert-butyl-N-((1R,2S)-1-{[(cyclopropylsulfonyl)amino]carbonyl}-2-vinylcyclopropyl)-3,21,24-trioxo-2-oxa-4,20,22,25-tetraazapentacyclo [23.2.1.1^4,7.0^6,11.0^16,20] nonacosa-6,8,10,12-tetraene-26-carboxamide]: the IC50 under setting [1] is 260 nM. For `C=C[C@@H]1C[C@]1(NC(=O)[C@@H]1C[C@@H]2CN1C(=O)[C@H](C(C)(C)C)NC(=O)N1CCC[C@H]1CCCCc1cccc3c1CN(C3)C(=O)O2)C(=O)NS(=O)(=O)C1CC1` [Example 5, (1R,16R,23S,26S)-23-tert-butyl-N-((1R,2S)-1-{[(cyclopropylsulfonyl)amino]carbonyl}-2-vinylcyclopropyl)-3,21,24-trioxo-2-oxa-4,20,22,25-tetraazapentacyclo [23.2.1.1^4,7.0^6,11.0^16,20] nonacosa-6,8,10-triene-26-carboxamide], the IC50 under setting [2] amounted to 170 nM. As for `C=C[C@@H]1C[C@]1(NC(=O)[C@@H]1C[C@@H]2CN1C(=O)[C@H](C1CCCCC1)NC(=O)N1CCC[C@H](CCCCc3cc4c(cc(-c5ccccc5)nc4cc3OC)O2)C1)C(=O)NS(=O)(=O)C1CC1` [Example 6, (3R,5S,8S,15S)-8-cyclohexyl-N-((1R,2S)-1-{[(cyclopropylsulfonyl)amino]carbonyl}-2-vinylcyclopropyl)-21-methoxy-7,10-dioxo-25-phenyl-2-oxa-6,9,11,24-tetraazapentacyclo [18.6.2.1^3,6.1^11,15.0^23,27] triaconta-1(27),20,22,23,25,27-hexaene-5-carboxamide], the IC50 under setting [1] was found to be 24 nM. In the case of `C=C[C@@H]1C[C@]1(NC(=O)[C@@H]1C[C@@H]2CN1C(=O)[C@H](C1CCCCC1)NC(=O)N1CCC[C@@H](CCCCc3cc4c(cc(-c5ccccc5)nc4cc3OC)O2)C1)C(=O)NS(=O)(=O)C1CC1` [Example 7, (3R,5S,8S,15R)-8-cyclohexyl-N-((1R,2S)-1-{[(cyclopropylsulfonyl)amino]carbonyl}-2-vinylcyclopropyl)-21-methoxy-7,10-dioxo-25-phenyl-2-oxa-6,9,11,24-tetraazapentacyclo [18.6.2.1^3,6.1^11,15.0^23,27] triaconta-1(27),20,22,23,25,27-hexaene-5-carboxamide], the IC50 under setting [2] was 8 nM. Take `C=C[C@@H]1C[C@]1(NC(=O)[C@@H]1C[C@@H]2CN1C(=O)[C@H](C1CCCCC1)NC(=O)N1CCC[C@H](C1)OCCCc1cc3c(cc(-c4ccccc4)nc3cc1OC)O2)C(=O)NS(=O)(=O)C1CC1` [Example 8, (3R,5S,8S,15R)-8-cyclohexyl-N-((1R,2S)-1-{[(cyclopropylsulfonyl)amino]carbonyl}-2-vinylcyclopropyl)-21-methoxy-7,10-dioxo-25-phenyl-2,16-dioxa-6,9,11,24-tetraazapentacyclo [18.6.2.1^3,6.1^11,15.0^23,27] triaconta-1(27),20,22,23,25,27-hexaene-5-carboxamide]: under setting [1], the IC50 was determined as 5 nM. For `C=C[C@@H]1C[C@]1(NC(=O)[C@@H]1C[C@@H]2CN1C(=O)[C@H](C1CCCCC1)NC(=O)N1CCC[C@@H](C1)OCCCc1cc3c(cc(-c4ccccc4)nc3cc1OC)O2)C(=O)NS(=O)(=O)C1CC1` [Example 9, (3R,5S,8S,15S)-8-cyclohexyl-N-((1R,2S)-1-{[(cyclopropylsulfonyl)amino]carbonyl}-2-vinylcyclopropyl)-21-methoxy-7,10-dioxo-25-phenyl-2,16-dioxa-6,9,11,24-tetraazapentacyclo [18.6.2.1^3,6.1^11,15.0^23,27] triaconta-1(27),20,22,23,25,27-hexaene-5-carboxamide], under setting [1], the IC50 came out at 7 nM.

In the case of `C=C[C@@H]1C[C@]1(NC(=O)[C@@H]1C[C@@H]2CN1C(=O)[C@H](C1CCCCC1)NC(=O)N1CCC[C@@H](C1)OCCCc1cc3c(nccc3cc1OC)O2)C(=O)NS(=O)(=O)C1CC1` [Example 10, (3R,5S,8S,15S)-8-cyclohexyl-N-((1R,2S)-1-{[(cyclopropylsulfonyl)amino]carbonyl}-2-vinylcyclopropyl)-21-methoxy-7,10-dioxo-2,16-dioxa-6,9,11,26-tetraazapentacyclo [18.6.2.1^3,6.1^11,15.0^23,27] triaconta-1(26),20,22,24,27-pentaene-5-carboxamide], the IC50 under setting [1] came out at 7 nM. Take `C=C[C@@H]1C[C@]1(NC(=O)[C@@H]1C[C@@H]2CN1C(=O)[C@H](C1CCCCC1)NC(=O)N1CCC[C@H](C1)OCCCc1cc3c(nccc3cc1OC)O2)C(=O)NS(=O)(=O)C1CC1` [Example 11, (3R,5S,8S,15R)-8-cyclohexyl-N-((1R,2S)-1-{[(cyclopropylsulfonyl)amino]carbonyl}-2-vinylcyclopropyl)-21-methoxy-7,10-dioxo-2,16-dioxa-6,9,11,26-tetraazapentacyclo [18.6.2.1^3,6.1^11,15.0^23,27] triaconta-1(26),20,22,24,27-pentaene-5-carboxamide]: the IC50 under setting [2] was 6 nM.
